Test results reported in patent publication US20230348426A1, “OXOPYRROLIDINE FPR2 AGONISTS” (Bristol-Myers Squibb Company, priority 2020, published 2023).

How the values were obtained:
human FPR2 = human FPR2 (Homo sapiens (Human), UniProt P25090); assay: FPR2 cyclic adenosine monophosphate (cAMP) assay; assay type: cell-based; conditions: CHO cells overexpressing human FPR2; forskolin 5 µM; inhibition of cAMP production; read-out: hFPR2 cAMP2 EC50
How it was run: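 CHO cells overexpressing human FPR2 (2,000/well) incubated 30 min at room temperature with compound (0.020 nM–100 µM, 1% DMSO), 5 µM forskolin and 200 µM IBMX.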

human FPR1 = human FPR1 (Homo sapiens (Human), UniProt P21462); assay: FPR1 cyclic adenosine monophosphate (cAMP) assay; assay type: cell-based; conditions: CHO cells overexpressing human FPR1; forskolin 10 µM; inhibition of cAMP production; read-out: hFPR1 cAMP EC50
human FPR1, sequence (P21462 whole entry): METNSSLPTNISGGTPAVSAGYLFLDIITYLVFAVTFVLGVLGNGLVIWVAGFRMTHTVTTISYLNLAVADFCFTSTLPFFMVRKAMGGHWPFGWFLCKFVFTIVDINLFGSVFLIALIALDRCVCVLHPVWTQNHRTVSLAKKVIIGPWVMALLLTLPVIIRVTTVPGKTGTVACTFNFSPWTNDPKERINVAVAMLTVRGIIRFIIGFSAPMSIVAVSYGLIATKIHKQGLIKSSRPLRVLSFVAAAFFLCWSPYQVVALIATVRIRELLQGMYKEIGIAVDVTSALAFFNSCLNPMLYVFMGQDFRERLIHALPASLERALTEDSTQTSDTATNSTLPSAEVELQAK
How it was run: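 CHO cells overexpressing human FPR1 (4,000 cells/well) stimulated with 10 µM forskolin plus 200 µM IBMX in the presence of compound (0.020 nM–100 µM, 1% DMSO), 30 min at room temperature. Intracellular cAMP measured by HTRF. Inhibition of cAMP production fitted to a 4-parameter logistic equation.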

human FPR2, sequence (P25090 whole entry): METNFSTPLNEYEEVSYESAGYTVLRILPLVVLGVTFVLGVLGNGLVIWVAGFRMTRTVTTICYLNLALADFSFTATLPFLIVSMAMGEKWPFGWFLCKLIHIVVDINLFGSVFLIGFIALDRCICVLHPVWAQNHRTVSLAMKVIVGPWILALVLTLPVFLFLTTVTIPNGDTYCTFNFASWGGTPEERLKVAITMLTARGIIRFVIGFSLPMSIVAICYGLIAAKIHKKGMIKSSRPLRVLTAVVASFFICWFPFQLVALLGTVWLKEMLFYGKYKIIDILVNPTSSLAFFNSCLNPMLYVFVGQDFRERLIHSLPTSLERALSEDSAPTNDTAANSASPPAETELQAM

| Structure (SMILES) | EC50 (human FPR2) | EC50 (human FPR1) |
| --- | --- | --- |
| COc1cc(F)c([C@@H]2CN(c3cccc(C4CCN(CCO)CC4)n3)C(=O)[C@H]2NC(=O)c2ccc(OC(F)F)cc2)c(F)c1 [Example 527] | 1.3 nM | 770 nM |
| COc1cc(F)c([C@@H]2CN(c3cccn(CC(F)F)c3=O)C(=O)[C@H]2NC(=O)c2ccc(OC(F)F)cc2)c(F)c1 [Example 145] | 3.7 nM | 8.2 nM |
| COc1cc(F)c([C@@H]2CN(Cc3ccccc3P(C)(C)=O)C(=O)[C@H]2NC(=O)c2ccc(OC(F)(F)F)cc2)c(F)c1 [Example 17] | 36 nM | 69 nM |
| COc1ccc([C@@H]2CN(c3cccn(CC(O)C(F)(F)F)c3=O)C(=O)[C@H]2NC(=O)c2ccc(OC(F)F)cc2)cc1 (some centres unmarked) [Example 371] | 1.9 nM | 8 nM |
| COc1ccc([C@@H]2CN(c3c(C)ccn(CCO)c3=O)C(=O)[C@H]2NC(=O)c2ccc(OC(F)(F)F)cc2)c(F)c1 [Example 636] | 1.6 nM | 3.2 nM |
| COc1cc(F)c([C@@H]2CN(c3ncccc3P(C)(C)=O)C(=O)[C@H]2NC(=O)c2ccc(OC(F)F)cc2)c(F)c1 [Example 25] | 35 nM | > 10000 nM |
| O=C(N[C@@H]1C(=O)N(c2cccn(CC(O)C(F)(F)F)c2=O)C[C@H]1c1ccc(Cl)cc1)c1ccc(OC(F)(F)F)cc1 (some centres unmarked) [Example 355] | 4.5 nM | 4 nM |
| COc1cc(F)c([C@@H]2CN(c3cccc(=O)n3C)C(=O)[C@H]2NC(=O)c2ccc(OC(F)F)cc2)c(F)c1 [Example 10] | 50 nM | 290 nM |
| COc1cc(F)c([C@@H]2CN(c3cc(F)cc(OC(C)C)c3)C(=O)[C@H]2NC(=O)c2ccc(OC(F)F)cc2)c(F)c1 [Example 29] | 51 nM | 110 nM |
| COc1cc(F)c([C@@H]2CN(c3cncn(C4CCNC4)c3=O)C(=O)[C@H]2NC(=O)c2ccc(Cl)cc2)c(F)c1 (some centres unmarked) [Example 714] | 6.4 nM | 3600 nM |
| COc1cc(F)c([C@@H]2CN(c3cccn(CC(F)(F)F)c3=O)C(=O)[C@H]2NC(=O)c2ccc(OC(F)F)cc2)c(F)c1 [Example 190] | 5 nM | 130 nM |
| COc1cc(N2C[C@@H]3C[C@H]2CN3C)nc(N2C(=O)[C@@H](NC(=O)c3ccc(Cl)cc3)[C@H](c3c(F)cc(OC)cc3F)[C@H]2C)c1 [Example 49] | 1.1 nM | 2000 nM |
| COc1cc(F)c([C@@H]2CN(c3c(C)ccn(CC4CC4)c3=O)C(=O)[C@H]2NC(=O)c2ccc(OC(F)(F)F)cc2)c(F)c1 [Example 151] | 3.9 nM | 0.5 nM |
| CCn1cncc(N2C[C@@H](c3c(F)cc(OC)cc3F)[C@H](NC(=O)c3ccc(Cl)cc3)C2=O)c1=O [Example 378] | 4.6 nM | 3800 nM |
| COc1cc(F)c([C@@H]2CN(c3cccn(CC(C)O)c3=O)C(=O)[C@H]2NC(=O)c2ccc(OC(F)F)cc2)c(F)c1 (some centres unmarked) [Example 141] | 3.6 nM | 29 nM |
| COCC(CO)n1cccc(N2C[C@@H](c3ccc(OC)cc3)[C@H](NC(=O)c3ccc(OC(F)F)cc3)C2=O)c1=O (some centres unmarked) [Example 252] | 7 nM | 44 nM |
| COc1cc(F)c([C@@H]2CN(c3c(C)ccn(CC(C)O)c3=O)C(=O)[C@H]2NC(=O)c2ccc(OC(F)F)cc2)c(F)c1 (some centres unmarked) [Example 176] | 4.6 nM | 6.5 nM |

| Structure (SMILES) | EC50 (human FPR2) | EC50 (human FPR1) |
| --- | --- | --- |
| COc1cc(F)c([C@@H]2CN(c3nc(N4CC5(COC5)C4)ccc3OC)C(=O)[C@H]2NC(=O)c2ccc(OC(F)F)cc2)c(F)c1 [Example 223] | 6.1 nM | 100 nM |
| COc1cc(F)c([C@@H]2CN(c3cccn(CC(O)CO)c3=O)C(=O)[C@H]2NC(=O)c2ccc(Cl)cc2)c(F)c1 (some centres unmarked) [Example 680] | 2.8 nM | 780 nM |
| CCn1cc(F)cc(N2C[C@@H](c3c(F)cc(OC)cc3F)[C@H](NC(=O)c3ccc(OC(F)F)cc3)C2=O)c1=O [Example 205] | 5.4 nM | 220 nM |
| COc1cc(F)c([C@@H]2CN(c3ccc4n(c3=O)CCOC4=O)C(=O)[C@H]2NC(=O)c2ccc(OC(F)F)cc2)c(F)c1 [Example 668] | 8.8 nM | 210 nM |
| COc1cc(C)nc(N2C[C@@H](c3c(F)cc(OC)cc3F)[C@H](NC(=O)c3ccc(OC(F)F)cc3)C2=O)c1 [Example 588] | 6.9 nM | 410 nM |
| COc1cc(F)c([C@@H]2CN(c3cccc(N4CCOCC4)n3)C(=O)[C@H]2NC(=O)c2ccc(OC(F)F)cc2)c(F)c1 [Example 580] | 3.6 nM | 740 nM |
| COc1cc(F)c([C@@H]2CN(c3ncccc3F)C(=O)[C@H]2NC(=O)c2ccc(OC(F)F)cc2)c(F)c1 [Example 33] | 5 nM | 1610 nM |
| COc1cc(F)c([C@@H]2CN(c3c(C)ccn(C(F)F)c3=O)C(=O)[C@H]2NC(=O)c2ccc(OC(F)F)cc2)c(F)c1 [Example 381] | 4 nM | 10 nM |
| COCCn1ccnc1N1C[C@@H](c2c(F)cc(OC)cc2F)[C@H](NC(=O)c2ccc(Cl)cc2)C1=O [Example 650] | 11 nM | 1700 nM |
| COc1cc(F)c([C@@H]2CN(c3cccnc3OC3CCOC3)C(=O)[C@H]2NC(=O)c2ccc(OC(F)F)cc2)c(F)c1 (some centres unmarked) [Example 157] | 4 nM | 100 nM |
| O=C(N[C@@H]1C(=O)N(c2cccn(CCC(F)(F)F)c2=O)C[C@H]1c1ccc(Cl)cc1)c1ccc(OC(F)(F)F)cc1 [Example 73] | 1.9 nM | 3.2 nM |
| COc1cc(F)c([C@@H]2CN(c3cnn4c3OCCC4)C(=O)[C@H]2NC(=O)c2ccc(OC(F)F)cc2)c(F)c1 [Example 597] | 1.5 nM | 210 nM |
| COc1cc(F)c([C@@H]2CN(c3ccnn(CC(O)C(F)(F)F)c3=O)C(=O)[C@H]2NC(=O)c2ccc(OC(F)F)cc2)c(F)c1 (some centres unmarked) [Example 475] | 2 nM | 20 nM |
| COc1cc(F)c([C@@H]2CN(c3c(C)ccn(CCS(C)(=O)=O)c3=O)C(=O)[C@H]2NC(=O)c2ccc(OC(F)(F)F)cc2)c(F)c1 [Example 469] | 1.4 nM | 2 nM |
| COc1cc(C2CCN(CCF)CC2)nc(N2C[C@@H](c3c(F)cc(OC)cc3F)[C@H](NC(=O)c3ccc(OC(F)F)cc3)C2=O)c1 [Example 492] | 8.7 nM | > 5000 nM |
| COc1cc(F)c([C@@H]2CN(c3cc(OCC4CCCO4)ncn3)C(=O)[C@H]2NC(=O)c2ccc(Cl)cc2)c(F)c1 (some centres unmarked) [Example 499] | 29 nM | 60 nM |
| COc1cc(F)c([C@@H]2CN(c3nccc(NC4CC4)c3C(F)(F)F)C(=O)[C@H]2NC(=O)c2ccc(Cl)cc2)c(F)c1 [Example 163] | 4.2 nM | 1200 nM |

Next, values leading:

| EC50 (human FPR2) | EC50 (human FPR1) | Structure (SMILES) |
| --- | --- | --- |
| 3.7 nM | 2100 nM | COc1cc(F)c([C@H]2[C@H](NC(=O)c3ccc(OC(F)F)cc3)C(=O)N(c3cccc(C4CCCN(C)C4)n3)[C@H]2C)c(F)c1 (some centres unmarked) [Example 512] |
| 111 nM | 1400 nM | COc1cc(F)c([C@@H]2CN(c3nc(N4C[C@@H](C)N(C)[C@@H](C)C4)ccc3C3CC3)C(=O)[C@H]2NC(=O)c2ccc(OC(F)F)cc2)c(F)c1 [Example 348] |
| 1.6 nM | 3200 nM | COc1cc(F)c([C@@H]2CN(c3cccc(N4C[C@@H]5C[C@H]4CN5C)n3)C(=O)[C@H]2NC(=O)c2ccc(OC(F)F)cc2)c(F)c1 [Example 531] |
| 3.1 nM | 4.1 nM | COCC(CO)n1cccc(N2C[C@@H](c3ccc(Cl)cc3)[C@H](NC(=O)c3ccc(OC(F)F)cc3)C2=O)c1=O (some centres unmarked) [Example 118] |
| 14 nM | 290 nM | CCn1cc(C)c(C)c(N2C[C@@H](c3c(F)cc(OC)cc3F)C(NC(=O)c3ccc(OC(F)(F)F)cc3)C2=O)c1=O (some centres unmarked) [Example 638] |
| 5.3 nM | 230 nM | COc1cc(F)c([C@@H]2CN(c3cccn(CC(O)CO)c3=O)C(=O)[C@H]2NC(=O)c2ccc(Cl)cc2)c(F)c1 (some centres unmarked) [Example 677] |
| 8.7 nM | 44 nM | COCC(CO)n1cccc(N2C(=O)[C@@H](NC(=O)c3ccc(OC(F)(F)F)cc3)[C@H](c3c(F)cc(OC)cc3F)[C@@H]2C)c1=O (some centres unmarked) [Example 293] |
| 1.6 nM | 110 nM | COc1cc(F)c([C@@H]2CN(c3nc(NC4CCOC4)ccc3F)C(=O)[C@H]2NC(=O)c2ccc(OC(F)(F)F)cc2)c(F)c1 (some centres unmarked) [Example 62] |
| 1.3 nM | 27 nM | COc1cc(F)c([C@@H]2CN(c3cccn(C(F)F)c3=O)C(=O)[C@H]2NC(=O)c2ccc(OC(F)F)cc2)c(F)c1 [Example 52] |
| 0.7 nM | 13 nM | COc1cc(F)c([C@@H]2CN(c3c(C)ccn(C4CCS(=O)(=O)CC4)c3=O)C(=O)[C@H]2NC(=O)c2ccc(OC(F)F)cc2)c(F)c1 [Example 626] |
| 3.5 nM | 1.7 nM | COc1cc(F)c([C@@H]2CN(c3cccn(CC(C)OC)c3=O)C(=O)[C@H]2NC(=O)c2ccc(OC(F)(F)F)cc2)c(F)c1 (some centres unmarked) [Example 138] |
| 4.9 nM | 38 nM | COc1cc(F)c([C@@H]2CN(c3cccn(CC(C)(CO)CO)c3=O)C(=O)[C@H]2NC(=O)c2ccc(OC(F)(F)F)cc2)c(F)c1 [Example 187] |
| 14 nM | 5700 nM | COc1cc(F)c([C@@H]2CN(c3nc(N4CCN(C)CC4)ccc3C(F)F)C(=O)[C@H]2NC(=O)c2ccc(Cl)cc2)c(F)c1 [Example 333] |
| 4.7 nM | 550 nM | COc1cc(F)c([C@@H]2CN(c3cccn(C(CO)C(F)(F)F)c3=O)C(=O)[C@H]2NC(=O)c2ccc(OC(F)F)cc2)c(F)c1 (some centres unmarked) [Example 582] |
| 3.4 nM | 1.7 nM | COCCn1ncc(C)c(N2C[C@@H](c3c(F)cc(OC)cc3F)[C@H](NC(=O)c3ccc(OC(F)F)cc3)C2=O)c1=O [Example 658] |
